{"source": "patent US20160151408A1", "about": "“NOVEL THERAPY FOR MULTIPLE SCLEROSIS USING VITAMIN D AND GUT BACTERIA” (California Institute of Technology, priority 2012, published 2016)", "key": {"[1]": {"system": "EAE", "conditions": "refs [6,8], [31,32]; cited from earlier work"}, "[2]": {"system": "CD4+Foxp3+ T cells", "assay": "Mouse DC / CD4+ T cell co-culture, Foxp3+ TREG induction", "type": "cell-based", "description": "(§1) FIG. 5, panels A-C. Graphs and plots showing vitamin D augments the ability of PSA to promote TREGS. (FIG. 5, panel A) Mouse BMDCs were stimulated with PSA (or PBS), and Cyp27b1 transcript levels were measured by qRT-PCR. PSA induces the expression of Cyp27b1 from WT, but not TLR2−/− DCs. (FIG. 5, panel B) Mouse DCs were treated with PSA, washed and co-cultured with naïve CD4+ T cells. After 4 days, PSA increased Foxp3+TREGS (see % in red box). The vitamin D metabolite 25D augmented PSA-induced TREGS. (FIG. 5, panel C) Human monocytes were treated with PSA or vehicle, washed and co-cultured with CD4+ T cells from PBMCs of the same donor. The MR for Foxp3 among CD4+CD25+ T cells is shown, with or without TGFβ.\n(§2) Next tested was whether vitamin D enhanced the ability of PSA to induce Foxp3+ TREG cells in vitro. BMDCs treated with PSA or PBS, with or without 25D, were incubated with CD4+ T cells from the spleens of mice. […] The Hewison group has described […] expression of CYP27B1 in human DCs, and has shown the effects of vitamin D on human TREG development in vitro [11]. However, the ability of PSA to induce human Foxp3+ TREG cells has not been reported. […] These studies further link PSA-induced TREGS to the vitamin D pathway. Thus, PSA and vitamin D may promote human TREG cells."}, "[3]": {"system": "Foxp3 among CD4+CD25+ T cells", "assay": "Human monocyte / CD4+ T cell co-culture, Foxp3 expression", "type": "cell-based", "description": "as §1, §2"}, "[4]": {"system": "experimental autoimmune encephalomyelitis (EAE)", "assay": "EAE clinical scores in mice on normal or vitamin D-deficient diet", "type": "in vivo, C57BL/6 mice", "description": "FIG. 2, panels A-D. Graphs showing germ-free (GF) mice are attenuated in EAE. Female C57B1/6 mice were immunized subcutaneously (s.c.) with 150 μg MOG35-55 peptide with 200 μg of Complete Freund's adjuvant (CFA). On the same day and 2 days later, mice were injected intraperitoneally (i.p.) with 150 ng/mouse of pertussis toxin. (FIG. 2, panel A) Clinical EAE scores of SPF (dark symbols) and GF (light symbols). Data are representative of three independent experiments. (FIG. 2, panel B) Proportions of SPF and GF mice that develop various degrees of EAE, as assessed by clinical score. Results are combined from 4 experiments, with a total of 20 for SPF and 22 for GF mice. (FIG. 2, panel C) IFNγ and IL-17A cytokine ELISA analysis of cells harvested from draining lymph nodes of SPF and GF mice 8 days after immunization with MOG/CFA and cultured for 3 days in vitro with MOG peptide. (FIG. 2, panel D) CD4+CD25+Foxp3+ T cells at day 15 post-immunization. Cells were cultured for 3 days with MOG peptide, and analyzed by flow cytometry. Data from Lee et al., PANS, 2011 [2].\nFIG. 6. […]\nTo asses EAE in mice, mice can be evaluated daily for signs of disease. The clinical course of the EAE can be scored according to the severity as follows: 0=no obvious signs of disease, 0.5=partial tail weakness (cannot raise tail against gravity), 1=limp tail, 1.5=limp tail and hindlimb weakness, 2=limp tail and impairment in righting reflex, 2.5=limp tail and hindlimb paresis (as determined by gait abnormality), 3=bilateral hindlimb paralysis, 3.5=bilateral hindlimb paralysis and forelimb paresis (as determined by in ability of the mouse to strongly grasp cage bars with the fore paws when placed on top), 4=moribund, 5=dead. […] Reduced symptoms of EAE can be evaluated by comparing clinical scores.\nPSA protects mice from EAE [8]; however, it is unknown whether PSA protection requires vitamin D. To address whether PSA may serve as a viable therapy for vitamin D deficient MS patients, mice on vitamin D sufficient and deficient diets were raised, EAE was induced, and PSA's protective effects were assessed."}, "[5]": {"system": "colitis", "conditions": "refs [4,5,22]; cited from earlier work"}, "[6]": {"system": "VDR", "assay": "VDR mRNA levels in colonic tissue of germ-free mice", "conditions": "oral gavage of GF animals"}, "[7]": {"system": "Cyp27b1", "assay": "Colonic Cyp27b1 mRNA by qRT-PCR in mice", "conditions": "mice on vitamin D deficient diet for 6 weeks, fed PSA for 2 weeks"}, "[8]": {"system": "Cyp27b1", "assay": "Cyp27b1 transcript levels in PSA-stimulated BMDCs (qRT-PCR)", "type": "cell-based, Mouse", "description": "as §1\nAs described, the ability of PSA to protect against colitis & EAE in mice involves Foxp3+ TREGS [8,48]. The inventors recognize that vitamin D may play a pivotal role in microbial-induced TREGS, given the ability of 1,25D to promote TREG generation and the novel findings that PSA induces the vitamin D-system. First, the cell type that is responsible for PSA-dependent conversion of 25D to active 1,25D was made. The inventors have shown that PSA activates DCs, which prime TREG responses."}}, "data": [{"molecule": "C=C1/C(=C\\C=C2/CCC[C@]3(C)[C@@H]([C@H](C)CCCC(C)(C)O)CC[C@@H]23)C[C@@H](O)C[C@@H]1O", "note": "[1,25D, 1,25-dihydroxyvitamin D3, reference compound]", "values": [{"measurement": "EAE disease (literature)", "setting": "[1]", "value": "protected from disease"}]}, {"molecule": "C=C1CC[C@H](O)C/C1=C/C=C1\\CCC[C@]2(C)[C@@H]([C@H](C)CCCC(C)(C)O)CC[C@@H]12", "note": "[25D, 25-hydroxyvitamin-D3, reference compound]", "values": [{"measurement": "PSA-induced CD4+Foxp3+ T cells, effect of co-treatment", "setting": "[2]; BMDCs treated with PSA with 25D", "value": "enhanced by co-treatment with 25D"}]}, {"molecule": "TGFβ [reference compound]", "values": [{"measurement": "PSA-mediated TREG cells, effect of added TGFβ", "setting": "[3]; with TGFβ", "value": "does not further enhance PSA-mediated TREG cells"}]}, {"molecule": "polysaccharide A [PSA]", "values": [{"measurement": "interaction of PSA with vitamin D in EAE protection", "setting": "[4]; PSA groups on sufficient versus deficient diet", "value": "synergizes with vitamin D during protection from EAE"}, {"measurement": "EAE clinical score at the peak of disease", "setting": "[4]; day 14, vitamin D sufficient and deficient diets, PSA 100 μg/dose orally 3×/week", "value": "protected from EAE"}, {"measurement": "EAE clinical score during the remission phase", "setting": "[4]; day 20-35, vitamin D sufficient diet versus deficient, PSA 100 μg/dose orally 3×/week", "value": "attenuated in disease during the remission phase if they were fed vitamin D sufficient diets"}, {"measurement": "colitis (literature)", "setting": "[5]", "value": "prevents and treats colitis in mice"}, {"measurement": "expression of VDR in the colon", "setting": "[6]", "value": "increases expression of VDR"}, {"measurement": "colonic Cyp27b1 expression", "setting": "[7]", "value": "induces increased colonic Cyp27b1"}, {"measurement": "Cyp27b1 expression from BMDCs", "setting": "[8]; TLR2−/− DCs", "value": "did not respond to PSA"}, {"measurement": "Cyp27b1 expression from BMDCs", "setting": "[8]; WT bone marrow-derived dendritic cells", "value": "induces Cyp27b1 expression"}, {"measurement": "EAE disease (literature)", "setting": "[1]", "value": "ameliorates and treats EAE"}, {"measurement": "proportions of CD4+Foxp3+ T cells in culture", "setting": "[2]; BMDCs treated with PSA, co-cultured with CD4+ T cells, 4 days", "value": "increases the proportions of CD4+Foxp3+ T cells in culture"}, {"measurement": "Foxp3 expression in human TREGS", "setting": "[3]; monocytes treated with PSA, co-cultured with CD4+ T cells from PBMCs of the same donor", "value": "promotes Foxp3 expression in human TREGS in vitro"}]}]}
